Reference: PMC12227560, “Total synthesis of a sorrentanone ester library and evaluation of its antimicrobial potential” (Scientific Reports, 2025)
≈ marks a conversion by molar mass, not a printed value. Where two headings read alike, the source gives them in different places.

What was measured:
P. aeruginosa ATCC27853 = test: Antimicrobial broth micro-dilution assay (MIC); assay type: cell-based; conditions: Pseudomonas aeruginosa, read-out: Minimum inhibitory concentration (MIC)
Text: (§1) 3. Bioactivity and Toxicity Assays
(§2) Antimicrobial assay: According to the standard broth micro-dilution assays, following the Standards of European Committee on Antimicrobial Susceptibility Testing (v 7.3.1: Method for the determination of broth dilution minimum inhibitory concentrations of antifungal agents for yeasts) for Candida spp., and according to the standard broth micro-dilution assays, recommended by the National Committee for Clinical Laboratory Standards (M07-A8) for bacteria MIC values of compounds were determinate. Compounds were dissolved in DMSO at a concentration of 50 mg/mL, and the highest tested concentration was 250 µg/mL. The inoculums were 1x10^5 colony forming units (CFU/mL), for Candida species, and bacteria species, 5x10^5 colony forming units (CFU/mL). The MIC value was recorded as the lowest concentration that inhibited the growth after 24 h at 37 °C. Additionally, 5 µL from each well of 96 well plates was transferred to Luria Agar (LA) plates for bacteria and Sabouraud agar (SAB) plates for Candida spp. and incubated for an additional 24 h at 37 °C, to determine MBC (Minimum bactericidal/fungicidal concentration) values. In Table 1. Are labeled compounds showing a difference in MBC and previously determined MIC values. […]

B. subtilis ATCC6633 = test: Antimicrobial broth micro-dilution assay (MIC); assay type: cell-based; conditions: Bacillus subtilis, read-out: Minimum inhibitory concentration (MIC)
Text: as §1, §2

E. coli NCTC9001 = test: Antimicrobial broth micro-dilution assay (MIC); assay type: cell-based; conditions: Escherichia coli, read-out: Minimum inhibitory concentration (MIC)
Text: as §1, §2

C. albicans ATCC10231 = test: Antimicrobial broth micro-dilution assay (MIC); assay type: cell-based; conditions: Candida albicans, read-out: Minimum inhibitory concentration (MIC)
Text: as §1, §2

S. aureus MRSA = test: Antimicrobial broth micro-dilution assay (MIC); assay type: cell-based; conditions: Staphylococcus aureus, read-out: Minimum inhibitory concentration (MIC)
Text: as §1, §2

S. aureus ATCC25923 = test: Antimicrobial broth micro-dilution assay (MIC); assay type: cell-based; conditions: Staphylococcus aureus, read-out: Minimum inhibitory concentration (MIC)
Text: as §1, §2

[1] = tested on: human lung fibroblast cell line (MRC-5); test: Cytotoxicity evaluation by MTT assay; assay type: cell-based
Text: as §1
Antimicrobial assay: According to the standard broth micro-dilution assays, following the Standards of European Committee on Antimicrobial Susceptibility Testing (v 7.3.1: Method for the determination of broth dilution minimum inhibitory concentrations of antifungal agents for yeasts) for Candida spp., and according to the standard broth micro-dilution assays, recommended by the National Committee for Clinical Laboratory Standards (M07-A8) for bacteria MIC values of compounds were determinate. Compounds were dissolved in DMSO at a concentration of 50 mg/mL, and the highest tested concentration was 250 µg/mL. The inoculums were 1x10^5 colony forming units (CFU/mL), for Candida species, and bacteria species, 5x10^5 colony forming units (CFU/mL). The MIC value was recorded as the lowest concentration that inhibited the growth after 24 h at 37 °C. Additionally, 5 µL from each well of 96 well plates was transferred to Luria Agar (LA) plates for bacteria and Sabouraud agar (SAB) plates for Candida spp. and incubated for an additional 24 h at 37 °C, to determine MBC (Minimum bactericidal/fungicidal concentration) values. In Table 1. Are labeled compounds showing a difference in MBC and previously determined MIC values.
Cytotoxicity evaluation: Antiproliferative activity was tested by MTT assay (3-(4,5-dimethylthiazol-2-yl)-2,5-diphenyltetrazoliumbromide) on a human lung fibroblast cell line (MRC-5; ATCC collection). Pre-grown (24 h) cell monolayers (1x10^4 cells per well) in RPMI 1640 medium supplemented with 100 μg/mL streptomycin, 100 U/mL penicillin, and 10% (v/v) FBS (all from Sigma, Munich, Germany) containing the tested compounds at concentrations ranging from 5 to 20 μg/mL were incubated in a humidified atmosphere of 95% air and 5% CO2 at 37 °C for 48 h. The cell viability (extent of MTT reduction) was measured spectrophotometrically at 540 nm using the Epoch 2000 multiplate reader, and the cell survival was expressed as a percentage of the control (untreated cells). Cytotoxicity was expressed as the concentration of the compound inhibiting cell growth by 50% (IC 50). […]

Caenorhabditis elegans = test: In vivo toxicity C. elegans survival assay; conditions: C. elegans model
Experimental: 3. Bioactivity and Toxicity Assays […]
Compounds were dissolved in DMSO at a concentration of 50 mg/mL, and the highest tested concentration was 250 µg/mL. […]
In vivo toxicity C. elegans assay: The C. elegans survival assay was carried out as described previously with some modifications. 8 In brief, synchronized worms (L4 stage) were suspended in a medium containing 95% M9 buffer (3.0 g of KH2PO4, 6.0 g of Na2HPO4, 5.0 g of NaCl, and 1 mL of 1 M MgSO4 × 7H2O in 1 L of water), 5% LB (Luria-Bertani) broth (Oxoid, Basingstoke, UK), and 10 μg of cholesterol (Sigma -Aldrich, Munich, Germany) per mL. The experiment was carried out in 96 -well flat -bottomed microtiter plates (Sarstedt, Nümbrecht, Germany) in the final volume of 100 μL per wel l. 25 μL of this suspension of nematodes (25 –35 nematodes) were transferred to the wells of a 96 -well microtiter plate, where 50 μL of the medium was previously added. Next, 25 μL of a solvent control (DMSO) or 25 μL of a concentrated solution was added to the test wells. The final concentrations of the compounds were 50, 25, 10, and 5 µg/mL. Subsequently, the plates were incubated at 25 °C for 2 days. The fraction of dead worms was determined after 48 h by counting the number of dead worms and the total number of worms in each well, using a stereomicroscope (SMZ143-N2GG, Motic, Germany).
As a negative control experiment, nematodes were exposed to the medium containing 1% […]
Ergosterol biosynthesis assay: Ergosterol levels were measured according to the published procedure with some minor modifications. 10 Briefly, a sing le C. albicans colony from an overnight Sabouraud dextrose agar plate was used to inoculate 50 ml of Sabouraud dextrose broth containing 0.5 MIC concentrated compounds. Incubation was performed for 18 h at 37 °C on the rotary shaker at 180 rpm. Cells were harvested by centrifugation at 3000 rpm for 5 min and washed once with sterile distilled water. The net wet weight of the cell pellet was determined. Three milliliters of 25% alcoholic potassium hydroxide solution (25 g of KOH and 35 ml of sterile distill ed water, brought to 100 ml with 100% ethanol), was added to each pellet and vortex mixed for 1 min and incubated in an 85 °C water bath for 1 h. Tubes were cooled to room temperature and extraction of sterols was done with the addition of a mixture of 1 ml of sterile distilled water and 3 ml of n-heptane followed by vigorous vortex mixing for 3 min. The heptane layer was used for spectrophotometrically measuring ergosterol concentrations by scanning absorbance between 240 nm and 300 nm using Ultrospec 3300pro 573 (Amer sham Biosciences, Amersham, UK).

[2] = tested on: two S. aureus strains and B. subtilis ATCC6633; test: Antimicrobial assay, Gram-positive bacteria; assay type: cell-based; conditions: from MIC values
Text: as §1, §2

[3] = P. aeruginosa ATCC27853, 24 h at 37 °C, highest tested concentration 250 µg/mL
[4] = B. subtilis ATCC6633, 24 h at 37 °C, highest tested concentration 250 µg/mL
[5] = E. coli NCTC9001, 24 h at 37 °C, highest tested concentration 250 µg/mL
[6] = C. albicans ATCC10231, 24 h at 37 °C, highest tested concentration 250 µg/mL
[7] = S. aureus MRSA, 24 h at 37 °C, highest tested concentration 250 µg/mL
[8] = S. aureus ATCC25923, 24 h at 37 °C, highest tested concentration 250 µg/mL

SMILES	MIC (P. aeruginosa ATCC27853; [3]) [µg/mL]	MIC (B. subtilis ATCC6633; [4]) [µg/mL]	MIC (E. coli NCTC9001; [5]) [µg/mL]	MIC (C. albicans ATCC10231; [6]) [µg/mL]	MIC (S. aureus MRSA; [7]) [µg/mL]	MIC (S. aureus ATCC25923; [8]) [µg/mL]	cell survival ([1]; MRC-5 cells, 10 µg/mL, 48 h)	in vivo toxicity (in words) (Caenorhabditis elegans)	improvement of antibacterial activity compared to sorrentanone (7) [2]	selectivity index (SI) ([1]; cytotoxicity versus antibiotic activity, calculation not described)	MIC (P. aeruginosa ATCC27853; ATCC27853, 24 h) [µg/mL]	MIC (B. subtilis ATCC6633; ATCC6633, 24 h) [µg/mL]	MIC (E. coli NCTC9001; NCTC9001, 24 h) [µg/mL]	MIC (C. albicans ATCC10231; ATCC10231, 24 h) [µg/mL]	MIC (S. aureus MRSA; MRSA, 24 h) [µg/mL]	MIC (S. aureus ATCC25923; ATCC25923, 24 h) [µg/mL]
CCOC(=O)C1=C(C)C(=O)C(O)=C(C)C1=O [compound 29]	> 250	15.6 (≈ 69.6 µM)	> 250	> 250	62.5 (≈ 279 µM)	62.5 (≈ 279 µM)	–	–	–	–	–	–	–	–	–	–
CC1=C(O)C(=O)C(C)=C(C(=O)OCCC(C)C)C1=O [compound 34]	> 250	15.6 (≈ 58.6 µM)	> 250	> 250	15.6 (≈ 58.6 µM)	15.6 (≈ 58.6 µM)	–	–	two- to four-fold improved activity	–	–	–	–	–	–	–
CCCCCCOC(=O)C1=C(C)C(=O)C(O)=C(C)C1=O [compound 35]	> 250	7.81 (≈ 27.9 µM)	> 250	62.5 (≈ 223 µM)	31.2 (≈ 111 µM)	31.2 (≈ 111 µM)	–	–	–	–	–	–	–	–	–	–
CN[C@H](CC(C)C)C(=O)N[C@H]1C(=O)N[C@@H](CC(N)=O)C(=O)N[C@H]2C(=O)N[C@H]3C(=O)N[C@H](C(=O)N[C@H](C(=O)O)c4cc(O)cc(O)c4-c4cc3ccc4O)[C@H](O)c3ccc(c(Cl)c3)Oc3cc2cc(c3O[C@@H]2O[C@H](CO)[C@@H](O)[C@H](O)[C@H]2O[C@H]2C[C@](C)(N)[C@H](O)[C@H](C)O2)Oc2ccc(cc2Cl)[C@H]1O [vancomycin, reference compound]	–	–	–	–	–	–	–	–	–	200	125 (≈ 86.3 µM)	0.4 (≈ 0.276 µM)	125 (≈ 86.3 µM)	50 (≈ 34.5 µM)	0.5 (≈ 0.345 µM)	1 (≈ 0.69 µM)
CCCCOC(=O)C1=C(C)C(=O)C(O)=C(C)C1=O [compound 31]	> 250	15.6 (≈ 61.8 µM)	> 250	> 250	31.2 (≈ 124 µM)	31.2 (≈ 124 µM)	–	–	–	–	–	–	–	–	–	–
COC(=O)C1=C(C)C(=O)C(O)=C(C)C1=O [compound 28]	> 250	15.6 (≈ 74.2 µM)	> 250	> 250	31.2 (≈ 148 µM)	62.5 (≈ 297 µM)	–	–	–	–	–	–	–	–	–	–
C#CCCOC(=O)C1=C(C)C(=O)C(O)=C(C)C1=O [compound 38]	> 250	31.2 (≈ 126 µM)	> 250	> 250	31.2 (≈ 126 µM)	62.5 (≈ 252 µM)	–	–	–	–	–	–	–	–	–	–

The next lines start with results.

MIC (P. aeruginosa ATCC27853; [3]) [µg/mL]	MIC (B. subtilis ATCC6633; [4]) [µg/mL]	MIC (E. coli NCTC9001; [5]) [µg/mL]	MIC (C. albicans ATCC10231; [6]) [µg/mL]	MIC (S. aureus MRSA; [7]) [µg/mL]	MIC (S. aureus ATCC25923; [8]) [µg/mL]	SMILES	cell survival ([1]; MRC-5 cells, 10 µg/mL, 48 h)	in vivo toxicity (in words) (Caenorhabditis elegans)	improvement of antibacterial activity compared to sorrentanone (7) [2]	selectivity index (SI) ([1]; cytotoxicity versus antibiotic activity, calculation not described)	MIC (P. aeruginosa ATCC27853; ATCC27853, 24 h) [µg/mL]	MIC (B. subtilis ATCC6633; ATCC6633, 24 h) [µg/mL]	MIC (E. coli NCTC9001; NCTC9001, 24 h) [µg/mL]	MIC (C. albicans ATCC10231; ATCC10231, 24 h) [µg/mL]	MIC (S. aureus MRSA; MRSA, 24 h) [µg/mL]	MIC (S. aureus ATCC25923; ATCC25923, 24 h) [µg/mL]
> 250	31.2 (≈ 125 µM)	> 250	> 250	31.2 (≈ 125 µM)	62.5 (≈ 250 µM)	C=CCCOC(=O)C1=C(C)C(=O)C(O)=C(C)C1=O [compound 37]	–	–	–	–	–	–	–	–	–	–
> 250	15.6 (≈ 65.5 µM)	> 250	> 250	62.5 (≈ 262 µM)	62.5 (≈ 262 µM)	CCCOC(=O)C1=C(C)C(=O)C(O)=C(C)C1=O [compound 30]	–	–	–	–	–	–	–	–	–	–
> 250	31.2 (≈ 124 µM)	> 250	> 250	31.2 (≈ 124 µM)	31.2 (≈ 124 µM)	CC1=C(O)C(=O)C(C)=C(C(=O)OCC(C)C)C1=O [compound 32]	–	–	–	–	–	–	–	–	–	–
> 250	31.2 (≈ 119 µM)	> 250	62.5 (≈ 238 µM)	62.5 (≈ 238 µM)	31.2 (≈ 119 µM)	C#CCCCOC(=O)C1=C(C)C(=O)C(O)=C(C)C1=O [compound 40]	over 60%	–	–	–	–	–	–	–	–	–
> 250	15.6 (≈ 58.6 µM)	> 250	> 250	15.6 (≈ 58.6 µM)	15.6 (≈ 58.6 µM)	CCCCCOC(=O)C1=C(C)C(=O)C(O)=C(C)C1=O [compound 33]	–	comparatively lower in vivo toxicity	two- to four-fold improved activity	–	–	–	–	–	–	–
